According to patent publication US8575178B2, “Isothiazolo-pyrimidinedione derivatives as TRPA1 modulators” (Glenmark Pharmaceuticals S.A., priority 2009, dated 2013):

Assays:
human TRPA1 = target: T1, human TRPA1 (Homo sapiens, UniProt O75762); assay: 45Calcium uptake assay, inhibition of AITC induced calcium uptake in human TRPA1 expressing CHO cells; assay type: cell-based; settings: AITC 30 μM; for inhibition at 1 µM: 1.0 μM compound, read-out: human TRPA1 Percentage inhibition at 1.0 μM; for inhibition at 10 µM: 10.0 μM compound, read-out: human TRPA1 Percentage inhibition at 10.0 μM
T1 construct: expressed in transfected cells; host or cells: CHO cells (G-418 selection)
T1 sequence (O75762 whole entry): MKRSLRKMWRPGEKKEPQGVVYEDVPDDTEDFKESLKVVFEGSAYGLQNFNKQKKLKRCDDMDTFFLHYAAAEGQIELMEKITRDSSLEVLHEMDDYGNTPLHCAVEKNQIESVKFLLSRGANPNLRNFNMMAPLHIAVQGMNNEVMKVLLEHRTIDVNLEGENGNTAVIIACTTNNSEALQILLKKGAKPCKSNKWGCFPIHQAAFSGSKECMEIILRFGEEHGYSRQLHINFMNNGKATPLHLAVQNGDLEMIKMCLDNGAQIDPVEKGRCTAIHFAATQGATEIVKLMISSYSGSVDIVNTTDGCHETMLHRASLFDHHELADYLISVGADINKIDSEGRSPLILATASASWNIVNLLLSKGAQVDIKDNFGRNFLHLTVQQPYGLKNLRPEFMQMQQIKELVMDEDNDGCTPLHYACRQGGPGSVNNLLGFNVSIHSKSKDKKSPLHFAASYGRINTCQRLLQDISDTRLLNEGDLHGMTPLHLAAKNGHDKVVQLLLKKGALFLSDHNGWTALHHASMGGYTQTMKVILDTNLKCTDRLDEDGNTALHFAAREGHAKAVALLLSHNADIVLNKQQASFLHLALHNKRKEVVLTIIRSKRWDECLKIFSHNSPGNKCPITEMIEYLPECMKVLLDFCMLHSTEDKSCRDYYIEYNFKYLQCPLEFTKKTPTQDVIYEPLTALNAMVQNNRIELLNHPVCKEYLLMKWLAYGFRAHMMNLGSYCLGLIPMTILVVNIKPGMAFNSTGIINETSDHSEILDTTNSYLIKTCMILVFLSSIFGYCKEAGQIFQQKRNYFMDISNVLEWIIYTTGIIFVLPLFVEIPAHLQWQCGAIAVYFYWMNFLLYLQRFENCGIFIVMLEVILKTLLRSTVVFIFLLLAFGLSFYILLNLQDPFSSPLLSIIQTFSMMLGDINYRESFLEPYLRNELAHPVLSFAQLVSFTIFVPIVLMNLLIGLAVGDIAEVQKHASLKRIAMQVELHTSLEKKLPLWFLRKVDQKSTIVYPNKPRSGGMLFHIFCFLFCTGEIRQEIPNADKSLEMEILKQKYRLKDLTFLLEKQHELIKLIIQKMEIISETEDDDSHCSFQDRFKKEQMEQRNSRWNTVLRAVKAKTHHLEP
Text: (§1) The illustrative examples of the present invention are screened for TRPA1 activity according to a modified procedure described in (a) Tóth, A. et al. Life Sciences, 2003, 73, 487-498. (b) McNamara C, R. et al, Proc. Natl. Acad. Sci. U.S.A., 2007, 104, 13525-13530. The screening of the compounds can be carried out by other methods and procedures known to persons skilled in the art.
(§2) Screening for TRPA1 Antagonist Using the ^45Calcium Uptake Assay:
(§3) The inhibition of TRPA1 receptor activation was measured as inhibition of allyl isothiocyanate (AITC) induced cellular uptake of radioactive calcium.
(§4) Test compounds were dissolved in 100% DMSO to prepare 10 mM stock and then diluted using plain medium with 0.1% BSA and 1.8 mM CaCl2 to get the desired concentration. The final concentration of DMSO in the reaction was 0.5% (v/v). Human TRPA1 expressing CHO cells were grown in F-12 DMEM medium with 10% FBS, 1% penicillin-streptomycin solution, and 400 μg/ml of G-418. Rat TRPA1 expressing CHO cells were grown in F-12 DMEM medium with 10% FBS, 1% penicillin-streptomycin solution, and 400 μg/ml of Zeocin. Cells were seeded 24 h prior to the assay in 96 well plates so as to get ˜50,000 cells per well on the day of experiment. Cells were treated with the test compounds for 10 minutes followed by the addition of AITC at a final concentration of 30 μM (for human TRPA1) and/or 10 μM (for rat TRPA1) and 5 μCi/ml ^45Ca^+2 for 3 minutes. Cells were washed and lysed using a buffer containing 1% Triton X-100, 0.1% deoxycholate and 0.1% SDS. Radioactivity in the lysate was measured in a Packard TopCount after addition of liquid scintillant. (Toth et al, Life Sciences (2003) 73, 487-498; McNamara C R et al, Proceedings of the National Academy of Sciences, (2007) 104, 13525-13530).
(§5) Concentration response curves were plotted as a % of maximal response obtained in the absence of test antagonist. IC50 values can be calculated from concentration response curve by nonlinear regression analysis using GraphPad PRISM software.

rat TRPA1 = target: T2, rat TRPA1 (Rattus norvegicus, UniProt Q6RI86); assay: 45Calcium uptake assay, inhibition of AITC induced calcium uptake in rat TRPA1 expressing CHO cells; assay type: cell-based; settings: AITC 10 μM; for inhibition at 1 µM: 1.0 μM compound, read-out: rat TRPA1 Percentage inhibition at 1.0 μM; for inhibition at 10 µM: 10.0 μM compound, read-out: rat TRPA1 Percentage inhibition at 10.0 μM
T2 construct: expressed in transfected cells; host or cells: CHO cells (Zeocin selection)
T2 sequence (Q6RI86 whole entry): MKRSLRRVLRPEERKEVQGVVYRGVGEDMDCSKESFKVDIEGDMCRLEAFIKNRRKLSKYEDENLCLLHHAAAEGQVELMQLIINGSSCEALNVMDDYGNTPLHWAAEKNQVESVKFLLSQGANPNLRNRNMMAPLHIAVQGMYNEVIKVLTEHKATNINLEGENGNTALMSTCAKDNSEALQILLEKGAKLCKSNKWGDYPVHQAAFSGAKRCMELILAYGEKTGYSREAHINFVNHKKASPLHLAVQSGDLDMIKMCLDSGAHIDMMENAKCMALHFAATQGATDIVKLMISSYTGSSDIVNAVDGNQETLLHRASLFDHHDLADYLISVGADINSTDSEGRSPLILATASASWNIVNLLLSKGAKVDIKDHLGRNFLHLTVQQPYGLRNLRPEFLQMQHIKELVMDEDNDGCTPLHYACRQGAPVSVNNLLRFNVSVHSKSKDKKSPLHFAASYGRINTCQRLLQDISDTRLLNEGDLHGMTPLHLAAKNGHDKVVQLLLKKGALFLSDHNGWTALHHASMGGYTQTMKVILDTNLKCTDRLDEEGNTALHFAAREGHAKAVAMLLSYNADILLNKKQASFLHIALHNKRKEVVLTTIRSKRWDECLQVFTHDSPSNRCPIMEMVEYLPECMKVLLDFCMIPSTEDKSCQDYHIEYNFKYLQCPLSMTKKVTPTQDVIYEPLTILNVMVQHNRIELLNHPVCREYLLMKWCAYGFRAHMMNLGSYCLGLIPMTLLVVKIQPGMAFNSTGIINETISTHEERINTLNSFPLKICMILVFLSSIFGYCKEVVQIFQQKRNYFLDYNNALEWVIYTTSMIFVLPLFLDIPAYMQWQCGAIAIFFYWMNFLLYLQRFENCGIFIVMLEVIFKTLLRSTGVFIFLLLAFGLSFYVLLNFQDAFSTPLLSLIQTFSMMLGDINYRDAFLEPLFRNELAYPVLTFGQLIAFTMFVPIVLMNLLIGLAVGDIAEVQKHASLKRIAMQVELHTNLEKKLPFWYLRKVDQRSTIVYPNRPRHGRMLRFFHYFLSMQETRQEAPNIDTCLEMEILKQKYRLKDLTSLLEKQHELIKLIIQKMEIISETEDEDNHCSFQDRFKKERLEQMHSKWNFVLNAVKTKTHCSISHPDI
Text: as §1, §2, §3, §4, §5

Row | inhibition at 1 µM (human TRPA1) [%] | inhibition at 10 µM (human TRPA1) [%] | IC50 (human TRPA1) [nM] | inhibition at 1 µM (rat TRPA1) [%] | inhibition at 10 µM (rat TRPA1) [%] | IC50 (rat TRPA1) [nM] | SMILES
1 | 99.9 | 100 | < 50 | 98.8 | 100 | 50 to 100 | Cn1c(=O)c2c(CC(=O)Nc3nc(-c4ccc(OC(F)(F)F)c(F)c4)cs3)nsc2n(C)c1=O [Example 25, 2-(5,7-Dimethyl-4,6-dioxo-4,5,6,7-tetrahydro[1,2]thiazolo[5,4-d]pyrimidin-3-yl)-N-{4-[3-fluoro-4-(trifluoromethoxy)phenyl]-1,3-thiazol-2-yl}acetamide]
2 | 95.5 | 99.5 | < 50 | 68.5 | 98.3 | > 100 | Cn1c(=O)c2c(CC(=O)Nc3nc(-c4ccc(F)c(OC(F)(F)F)c4)cs3)snc2n(C)c1=O [Example 3, 2-(5,7-Dimethyl-4,6-dioxo-4,5,6,7-tetrahydro[1,2]thiazolo[3,4-d]pyrimidin-3-yl)-N-{4-[4-fluoro-3-(trifluoromethoxy)phenyl]-1,3-thiazol-2-yl}acetamide]
3 | 100 | 100 | < 50 | 22.9 | 39.7 | – | Cn1c(=O)c2c(CC(=O)Nc3ccn(-c4ccc(Br)cc4)n3)snc2n(C)c1=O [Example 11, N-[1-(4-Bromophenyl)-1H-pyrazol-3-yl]-2-(5,7-dimethyl-4,6-dioxo-4,5,6,7-tetrahydro[1,2]thiazolo[3,4-d]pyrimidin-3-yl)acetamide]
4 | 95.6 | 99.7 | < 50 | 100 | 99.3 | 50 to 100 | Cn1c(=O)c2c(CC(=O)Nc3nc(-c4ccc(OC(F)(F)F)c(Cl)c4)cs3)nsc2n(C)c1=O [Example 30, 2-(5,7-Dimethyl-4,6-dioxo-4,5,6,7-tetrahydro[1,2]thiazolo[5,4-d]pyrimidin-3-yl)-N-{4-[3-chloro-4-(trifluoromethoxy)phenyl]-1,3-thiazol-2-yl}acetamide]
5 | 99.2 | 99.4 | – | 99.8 | 100 | – | Cn1c(=O)c2c(CC(=O)Nc3nc(-c4cc(Cl)cc(C(F)(F)F)c4)cs3)nsc2n(C)c1=O [Example 32, 2-(5,7-Dimethyl-4,6-dioxo-4,5,6,7-tetrahydro[1,2]thiazolo[5,4-d]pyrimidin-3-yl)-N-{4-[3-chloro-5-(trifluoromethyl)phenyl]-1,3-thiazol-2-yl}acetamide]
6 | 99.7 | 100 | < 50 | 34.9 | 43.8 | – | Cn1c(=O)c2c(CC(=O)Nc3nc(-c4ccc(Cl)cc4)cs3)snc2n(C)c1=O [Example 2, N-[4-(4-Chlorophenyl)-1,3-thiazol-2-yl]-2-(5,7-dimethyl-4,6-dioxo-4,5,6,7-tetrahydro[1,2]thiazolo[3,4-d]pyrimidin-3-yl)acetamide]

Continued, compound first:

Row | SMILES | inhibition at 1 µM (human TRPA1) [%] | inhibition at 10 µM (human TRPA1) [%] | IC50 (human TRPA1) [nM] | inhibition at 1 µM (rat TRPA1) [%] | inhibition at 10 µM (rat TRPA1) [%] | IC50 (rat TRPA1) [nM]
7 | Cn1c(=O)c2c(CC(=O)Nc3nc(-c4ccc(F)c(OC(F)(F)F)c4)cs3)nsc2n(C)c1=O [Example 24, 2-(5,7-Dimethyl-4,6-dioxo-4,5,6,7-tetrahydro[1,2]thiazolo[5,4-d]pyrimidin-3-yl)-N-{4-[4-fluoro-3-(trifluoromethoxy)phenyl]-1,3-thiazol-2-yl}acetamide] | 99.6 | 100 | < 50 | 100 | 99.8 | 50 to 100
8 | Cn1c(=O)c2c(CC(=O)Nc3nc(-c4cc(F)cc(C(F)(F)F)c4)cs3)nsc2n(C)c1=O [Example 22, 2-(5,7-Dimethyl-4,6-dioxo-4,5,6,7-tetrahydro[1,2]thiazolo[5,4-d]pyrimidin-3-yl)-N-{4-[3-fluoro-5-(trifluoromethyl)phenyl]-1,3-thiazol-2-yl}acetamide] | 100 | 100 | < 50 | 98.3 | 100 | –
9 | Cn1c(=O)c2c(CC(=O)Nc3nc(-c4cc(F)c(C(F)(F)F)c(F)c4)cs3)nsc2n(C)c1=O [Example 38, N-{4-[3,5-difluoro-4-(trifluoromethyl)phenyl]-1,3-thiazol-2-yl}-2-(5,7-dimethyl-4,6-dioxo-4,5,6,7-tetrahydro[1,2]thiazolo[5,4-d]pyrimidin-3-yl)acetamide] | 100 | 99.9 | < 50 | 100 | 100 | < 50
10 | Cn1c(=O)c2c(CC(=O)Nc3nc(-c4ccc(C(F)(F)F)c(F)c4)cs3)snc2n(C)c1=O [Example 4, 2-(5,7-Dimethyl-4,6-dioxo-4,5,6,7-tetrahydro[1,2]thiazolo[3,4-d]pyrimidin-3-yl)-N-{4-[3-fluoro-4-(trifluoromethyl)phenyl]-1,3-thiazol-2-yl}acetamide] | 99.8 | 100 | < 50 | 72.2 | 100 | –
11 | Cn1c(=O)c2c(CC(=O)Nc3nc(-c4cccc(C(F)(F)F)c4F)cs3)snc2n(C)c1=O [Example 5, 2-(5,7-Dimethyl-4,6-dioxo-4,5,6,7-tetrahydro[1,2]thiazolo[3,4-d]pyrimidin-3-yl)-N-{4-[2-fluoro-3-(trifluoromethyl)phenyl]-1,3-thiazol-2-yl}acetamide] | 98.1 | 99.1 | < 50 | 95.6 | 98.5 | –
12 | Cn1c(=O)c2c(CC(=O)Nc3nc(-c4ccc(F)c(F)c4)cs3)nsc2n(C)c1=O [Example 27, N-[4-(3,4-Difluorophenyl)-1,3-thiazol-2-yl]-2-(5,7-dimethyl-4,6-dioxo-4,5,6,7-tetrahydro[1,2]thiazolo[5,4-d]pyrimidin-3-yl)acetamide] | 97.8 | 99.8 | < 50 | 81.8 | 99.6 | > 100
13 | Cn1c(=O)c2c(CC(=O)Nc3nc(-c4cccc(C(F)(F)F)c4F)cs3)nsc2n(C)c1=O [Example 23, 2-(5,7-Dimethyl-4,6-dioxo-4,5,6,7-tetrahydro[1,2]thiazolo[5,4-d]pyrimidin-3-yl)-N-{4-[2-fluoro-3-(trifluoromethyl)phenyl]-1,3-thiazol-2-yl}acetamide] | 99.3 | 100 | < 50 | 100 | 100 | < 50
14 | Cn1c(=O)c2c(CC(=O)Nc3nc(-c4cc(F)c(C(F)(F)F)c(F)c4)cs3)snc2n(C)c1=O [Example 10, N-{4-[3,5-Difluoro-4-(trifluoromethyl)phenyl]-1,3-thiazol-2-yl}-2-(5,7-dimethyl-4,6-dioxo-4,5,6,7-tetrahydro[1,2]thiazolo[3,4-d]pyrimidin-3-yl)acetamide] | 99.9 | 100 | – | 35.2 | 68.4 | –
15 | Cn1c(=O)c2c(CC(=O)Nc3nc(-c4ccc(F)c(C(F)(F)F)c4F)cs3)nsc2n(C)c1=O [Example 37, N-{4-[2,4-Difluoro-3-(trifluoromethyl)phenyl]-1,3-thiazol-2-yl}-2-(5,7-dimethyl-4,6-dioxo-4,5,6,7-tetrahydro[1,2]thiazolo[5,4-d]pyrimidin-3-yl)acetamide] | 98.3 | 99.3 | < 50 | – | – | < 50
16 | Cn1c(=O)c2c(CC(=O)Nc3nc(-c4cccc(C(F)(F)F)c4)cs3)snc2n(C)c1=O [Example 1, 2-(5,7-Dimethyl-4,6-dioxo-4,5,6,7-tetrahydro[1,2]thiazolo[3,4-d]pyrimidin-3-yl)-N-{4-[3-(trifluoromethyl)phenyl]-1,3-thiazol-2-yl}acetamide] | 95.2 | 100 | < 50 | 71.3 | 100 | > 100
